PMC9477273 (2022)

Tested on: biosensor 566229815 (RNA, ribozyme) GGGAAACAAACAAAGCUGUCACUGGAUUUCUUGACGAAUGUGCAGGAAACGGCUCCGGUCUGAUGAGUUCGUGGCGGGACGAAACAGCAAAAAGAAAAA
Experiment: CleaveSeq ribozyme cleavage, deconvolution of 256-compound mixtures
Settings: sub-mM free Mg2+ (chelated by 9 mM rNTPs); 2 μM each compound in mixtures; ligand inferred ("highly likely"); 37 °C

SMILES: C=CC[n+]1c(C=C2C=CC=CN2C)sc2ccccc21
- fold change of cleavage: > 2 fold
